Measured values from US20230310356A1, “COMPOSITION FOR PREVENTING, AMELIORATING, OR TREATING BRAIN DAMAGE AND MILD COGNITIVE IMPAIRMENT COMPRISING GLUTAMINE AS EFFECTIVE COMPONENT” (INDUSTRY-ACADEMIC COOPERATION FOUNDATION GYEONGSANG …, priority 2020, published 2023).

Test system: PSD-95 and synaptophysin
Test: Synaptic puncta by co-localization of PSD-95 and synaptophysin after CIS and glutamine supplementation
Format: in vivo, mouse
Settings: infralimbic cortex and hippocampal CA1 region (FIGS. 5E and 6F)
Procedure: Control (CTL) is a group which received normal diet (common diet with nutritional balance) without any stress, CTL+Gln group is a normal diet group supplemented with glutamine (150 mg/kg of feed) and without any stress, STR is a normal diet group under stress, and STR+Gln group is a normal diet group supplemented with glutamine (150 mg/kg of feed) under stress. The stress group (STR) was individually brought by force to a restrainer for 2 hours every day (i.e., between 2 PM and 4 PM) so that the animals are applied with chronic immobilization stress for 15 days. Twenty-four hours after applying the last stress, the mouse was anesthetized with avertin, and perfused with PBS (pH 7.4) and 4% formaldehyde. After that, the brain was removed, fixed, and cut to a thickness with 40 μm. It was then incubated overnight after the addition of each antibody, nNOS (sc-5302, 200 μg/ml, Santa Cruz, Dallas, TX, USA, 1:50), iNOS (sc-7271, 200 μg/ml, Santa Cruz, 1:20), p47phox (sc-17845, 200 μg/ml, Santa Cruz, 1:20), p67phox (15551-1-AP, 43 μg/150 μl, Proteintech, Rosemont, IL, USA, 1:100), PSD-95 (postsynaptic density-95) (ab12093, 1 mg/ml, Abcam, Cambridge, UK, 1: 200), and synaptophysin (ab14692, 0.65 mg/ml, Abcam, 1: 200). […]

NC(=O)CC[C@H](N)C(=O)O [glutamine]
synaptic puncta (co-localization of PSD-95 and synaptophysin): significantly increased
